“Also recorded” adds a separate entry of the source.
How the values were obtained:
[1] = tested on: Neuro2a cells; test: MTT cytotoxicity assay in Neuro2a cells; assay type: cell-based; conditions: final small molecule concentration of 10 μM
Experimental: 90 μL of Neuro2a cells were plated on clear 96 well plates (Falcon 353072) at 6000 cells per well and given 24 hours to adhere to the plate. Subsequent treatment consisted of PHF samples that were coincubated with or without 100 μM of small molecules for 48 hours at 37° C., with 10 μL applied per well for a final small molecule concentration of 10 μM. After another 24-hour incubation at 37° C., 20 μL of Thiazolyl Blue Tetrazolium Bromide MTT dye (Sigma; 5 mg/mL stock in DPBS) was added to each well and further incubated for 3.5 hours at 37° C. Assay was arrested by replacement of all media with 100% DMSO and transfer to a SpectraMax MF reader. Background 700 nm readings were subtracted from the absorbance readings at 570 nm. Cells treated with 100% DMSO were designated as 0% viable and those treated only with vehicle were designated as 100% viable. Other well readings were normalized to these values.

[2] = molecular target: T1, recombinant alpha-synuclein fibrils (Homo sapiens, UniProt P37840); test: TEM quantification of recombinant alpha-synuclein fibrils; assay type: biochemical; conditions: 72 hours with compound, 10 micrographs
T1 construct: made in house; host or cells: E. coli BL21(DE3) Gold
Experimental: (§1) Both compounds were incubated with equimolar ratios of recombinant alpha-synuclein fibrils (100 μM:100 μM) for 48 hours at 37° C. in 1×PBS. After incubation, Thioflavin T (ThT), a fluorescent marker of amyloid fibrils, was added to the samples and ThT fluorescence was measured. EGCG was used as a positive control for comparison. […] Next, transmission electron microscopy (EM) was performed for each sample. […] To obtain a quantitative evaluation of fibril reduction, fibrils were first incubated for 72 hours with compound, then 10 micrographs from random grid points were taken for each sample, and the numbers of fibrils per image were counted (FIG. 5c). […] Western blot analysis, staining for alpha-synuclein, was performed for fibril samples incubated with compounds for 48 hours (FIG. 5d). For untreated alpha-synuclein fibrils, we see a prominent band at 14 kDa corresponding with protein monomer. […]
For all transmission electron microscopy (TEM), 6 μL of sample were added onto 400 mesh Formvar Carbon film copper mesh grids (Electron Microscopy Sciences), then incubated for four minutes. […] For quantitation of fibrils, […] TEM images were taken per experimental condition from random points throughout the grid. Fibril counts were manually quantified per image in a blinded fashion. […]

[3] = molecular target: T1, recombinant alpha-synuclein fibrils; test: Western blot of alpha-synuclein fibrils treated with compound; assay type: biochemical; conditions: 48 hours with compound
Experimental: as §1
Samples were loaded onto a NuPAGE 12% Bis-Tris pre-cast protein gel and ran for 35 minutes at 200 V. To transfer protein from the gel to a nitrocellulose membrane an iBLOT2 dry blotting system was used. […] Signal was detected with Pierce ECL Plus Western Blotting Substrate (Cat #32132), and blot was imaged with a Pharos FX Plus Molecular Imager.

[4] = tested on: Neuro-2a (N2a) neuronal cells; test: MTT cell viability assay of N2a cells treated with alpha-synuclein fibrils; assay type: cell-based; conditions: final alpha-synuclein fibril concentration of 1 μM, various compound concentrations
Experimental: Alpha-synuclein aggregates, particularly oligomers, are known to be cytotoxic to neurons^4. Thus, we next determined if disaggregation of alpha-synuclein aggregates by our compounds mitigates their cytotoxicity. […] The fibril and compound mixtures were then added to cultured Neuro-2a (N2a) neuronal cells, to a final alpha-synuclein fibril concentration of 1 μM.
All experiments were performed in triplicate. […] Removal from the incubator and replacement of well media with 100 μL of 100% DMSO halted the assay. Absorbance was measured at 570 nm using a SpectraMax M5 reader. A background reading at 700 nm was subtracted from the 570 nm reading. Well readings were normalized to vehicle alone treated cells (designated as 100% viable) and cells treated with 100% DMSO (designated as 0% viable).

[5] = molecular target: α-synuclein fibrils (Homo sapiens, UniProt P37840); test: Table A function: disaggregators of amyloid fibrils (alpha-synuclein)
[6] = tested on: AD brain-derived tau fibrils; test: Dot blot of AD tau aggregates with antibody GT38 during EGCG incubation; assay type: biochemical, human; conditions: EGCG incubation 1, 3, 6 and 24 hours at 37°
Experimental: Brain-derived tau PHFs were incubated with 80 μM EGCG at 37° C. in PBS various lengths of time. Samples were spotted onto nitrocellulose membrane, 20 μL were spotted for each condition, spotting 2 μL at a time and allowing to dry in between. Membrane was blocked for 1 hour in TBST with 5% milk and washed with TBST three times. Membrane was then incubated with primary antibody (either anti-tau GT38 (obtained from Virginia Lee lab at UPenn) or anti-phospho-tau AT8 (cat #MN1020, lot #UL2906281Z), 1:4000 dilution in 2% milk/TBST solution) for 1 hour, washed three times with TBST, incubated with horseradish peroxidase-conjugated secondary antibody (goat anti-mouse IgG H and L (HRP); 1:5000 Dilution in 2% milk/TBST), and washed three times in TBST. Signal was detected with Pierce ECL Plus Western Blotting Substrate (cat #32132), and blot was imaged with a Pharos FX Plus Molecular Imager.

[7] = molecular target: AD-tau fibrils seeding HEK293 cells expressing tau-K18 P301S-eYFP (Homo sapiens, UniProt P10636); test: Tau biosensor cell seeding assay; assay type: cell-based; parameters: dose or concentration left out as unconfirmed; conditions: screen; final inhibitor concentration on the biosensor cells
Chain of AD-tau fibrils seeding HEK293 cells expressing tau-K18 P301S-eYFP (P10636 623-695 limits assumed, stated change not applied): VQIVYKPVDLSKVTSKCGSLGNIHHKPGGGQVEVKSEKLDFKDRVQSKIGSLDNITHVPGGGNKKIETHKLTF
Experimental: Disaggregating molecules that produce active seeds are undesirable for therapy and are excluded from further study. HEK293T cells expressing CFP- or YFP-fused tau are transduced with exogenous AD tau fibrils.
Inhibitors were dissolved in DMSO. […] The number of seeded aggregates was determined by imaging the entire well of a 96-well plate in triplicate using a Celigo Image Cytometer (Nexcelom) in the YFP channel. […] The number of aggregates was normalized to the confluence of each well, and dose-response plots were generated by calculating the average and standard deviations from triplicate measurements.

[8] = tested on: AD brain-derived tau fibrils; test: Negative-stain EM and quantitative EM (qEM) of tau fibrils after compound incubation
Experimental: We then scrutinized the four CNS-Set inhibitors by quantitative EM (qEM) imaging (FIG. 3c, see Methods).
Negatively stained EM Grids were prepared by depositing 6 μl of sample on formvar/carbon coated copper grids (400 mesh) for 3 min with. Sample was rapidly wicked using filter paper without drying the grid, and stained with 1% uranyl acetate for 2 min. […] Fibrils were counted from collections of 33 micrographs (in triplicate) for each experimental condition.

Structure (SMILES)	neuronal cytotoxicity of compound alone [1]	number of imaged fibrils per EM image [2]	higher molecular weight alpha-synuclein species by Western blot [3]	rescue of alpha-synuclein fibril cytotoxicity [4]	Function [5]	time at which reduction in GT38-positive tau aggregate level begins [6] [h]	inhibition of seeding in tau biosensor cells (in words) [7]	appearance of fibrils in negative stain electron micrographs ([8]; 3-hour EGCG incubation)	appearance of fibrils in negative stain electron micrographs ([8]; 24 hours of EGCG incubation)	fibrils seen by electron microscopy (qualitative) ([8]; tau fibrils treated with each compound)
Cc1cc(C)c(NC(=O)Cn2nc3c4c(cccc4c2=O)-c2ccccc2-3)c(C)c1 [CNS-11, N-mesityl-2-(3-oxoindeno[1,2,3-de]phthalazin-2(3H)-yl)acetamide]	Apart from CNS-11	reduction in number of imaged fibrils	reduction in the higher molecular weight species	no rescue of toxicity at any concentration; also recorded: unable to rescue	–	–	–	–	–	–
Cc1cccc(C)c1NC(=O)Cn1nc(Cc2ccccc2)c2ccccc2c1=O [CNS-11g, 2-(4-benzyl-1-oxophthalazin-2-yl)-N-(2,6-dimethylphenyl)acetamide]	–	reduction in number of imaged fibrils	reduction in the higher molecular weight species	–	Dissociate α- synuclein fibrils	–	–	–	–	–
O=C(O[C@@H]1Cc2c(O)cc(O)cc2O[C@@H]1c1cc(O)c(O)c(O)c1)c1cc(O)c(O)c(O)c1 [EGCG, epigallocatechin gallate]	no significant cytotoxicity	–	–	–	–	1 to 3	prevents the formation of any seeds	largely intact but somewhat swollen	nearly gone	Few fibrils

Source: patent US20260021092A1, “STRUCTURE-BASED DESIGN OF A NOVEL CLASS OF DRUGS FOR NEURODEGENERATIVE DISEASE” (The Regents of the University of California, priority 2022, published 2026)
